# Experimental data as given in patent US20150126467A1, “USE OF ALGINATE OLIGOMERS TO ENHANCE THE EFFECTS OF ANTIFUNGAL AGENTS” (AlgiIPharma AS, priority 2011, published 2015).
# Like-named read-outs stand apart in the source and are kept apart here.
# Experiments:
# Type in all cases: cell-based
# [1] = test system: Aspergillus niger CCUG 18919; test: Robotic MIC assay, Aspergillus (Example 4); conditions: Mueller-Hinton broth; for MIC: Aspergillus niger, CCUG18919, 48 h, read-out: Minimum Inhibitory Concentration (MIC); for Minimum Inhibitory Concentration (MIC): A. niger CCUG 18919, 48 hours
# In short: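 Frozen spore/mycelium stocks were used as inoculum, sized for adequate 48 h growth. Two-fold antifungal dilutions were prepared in Mueller-Hinton broth with OligoG CF-5/20 (2, 6 or 10% assay concentrations; quadruplicate wells). Plates were incubated static at 34 °C, with OD600 read at about 24 and 48 h.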
# [2] = test system: Candida albicans, CCUG 39343; test: Robotic MIC assay (Example 1); conditions: for Minimum Inhibitory Concentration (MIC): 24 hours; for reduction in MIC values: comparing 0 and 10% G-block
# Procedure: (§1) A robotic MIC Assay was performed as follows. OligoG CF-5/20 were dissolved in medium (Mueller-Hinton broth or M19 broth depending on experiment) to 1.25 times of the desired assay concentrations (2, 6 and 10%). The antifungal agents under test were dissolved in medium without OligoG CF-5/20 and in medium with OligoG CF-5/20 at a concentration of 1.25 times the highest desired assay concentrations. For experiments where the effect of adding different concentrations of Na^+ was investigated, NaCl was dissolved in medium to the desired concentrations (10, 30 and 50 mM).
# (§2) Two-fold serial dilutions of antifungal agents were made in medium with different concentrations of OligoG CF-5/20, and the solutions were placed in four parallel wells in Nunc 384-well micro plates (30 μl per well in Nunc 242757 microplates). A group of 8 wells with no addition of antifungal agents for each OligoG CF-5/20 concentration was included on each microplate as growth reference. To each well in the 384-well assay plates was added 7.5 μl of medium inoculated with a frozen stock culture of Candida albicans (strain CCUG 39343).
# The frozen stock culture was prepared by growing the Candida strain at 34° C. for 48 h on YM-agar. 1-3 colonies from the plates were grown in 6 ml YM-broth at 34° C. for 14 h before freezing in 6% glycerol at −80° C. Each batch of frozen stock culture was then characterized in separate growth experiments using Mueller-Hinton or M19 broth to determine the minimum amount of inoculum giving satisfactory growth after 48 h under the conditions relevant for the MIC assay. This inoculation procedure is used in order to reduce day to day variation in bioassays.
# (§3) The micro plates were placed in plastic bags and incubated without shaking at 34° C. The optical density at 600 nm in the microwells was measured after approximately 13, 18, 24 and 34 hours of incubation, and the relative growth yield in each well was calculated based on the growth in the reference groups.
# Candida albicans = test: Robotic MIC assay with asthma/COPD medicaments (Example 5); conditions: Mueller-Hinton broth; for MIC values: 24 hours
# Procedure: as §1, §2, §3
# The robotic assay described in Example 1 was employed in this Example. […] The concentration utilized for the different components were based on information from Manocha et al. (2006).
# In this assay only Mueller-Hinton broth was used since this is the medium specified for standardized MIC assays (Jorgensen et al., 1999).
# [3] = A. niger CCUG 18919, 10% OligoG
smiles,measurement,setting,value
"Clc1ccc(COC(Cn2ccnc2)c2ccc(Cl)cc2Cl)c(Cl)c1 (centres unmarked) [Miconazole, miconazole]",MIC,"[1]; A. niger CCUG 18919, 0% OligoG",1 mg/L
same,MIC,"[1]; A. niger CCUG 18919, 2% OligoG",0.5 mg/L
same,MIC,"[1]; A. niger CCUG 18919, 6% OligoG",0.25 mg/L
same,MIC,[1]; [3],0.25 mg/L
"C[C@@H]1[C@H](O)[C@@H](C)/C=C/C=C/CC/C=C/C=C/C=C/C=C/C(O[C@H]2O[C@H](C)[C@@H](O)[C@H](N)[C@@H]2O)CC2O[C@](O)(CC(O)C(O)CCC(O)CC(O)CC(O)CC(=O)O[C@H]1C)CC(O)C2C(=O)O (some centres unmarked) [Nystatin, nystatin]",Minimum Inhibitory Concentration (MIC),"[2]; M19, NaCl 0 mM",6.4 mg/L
same,Minimum Inhibitory Concentration (MIC),"[2]; M19, NaCl 30 mM",3.2 mg/L
same,Minimum Inhibitory Concentration (MIC),"[2]; M19, NaCl 50 mM",1.6 mg/L
same,Minimum Inhibitory Concentration (MIC),"[2]; M19, OligoG CF 5/20 0%",6.4 mg/L
same,Minimum Inhibitory Concentration (MIC),"[2]; M19, OligoG CF 5/20 2%",1.6 mg/L
same,Minimum Inhibitory Concentration (MIC),"[2]; M19, OligoG CF 5/20 6%",0.8 mg/L
same,Minimum Inhibitory Concentration (MIC),"[2]; M19, OligoG CF 5/20 10%",0.4 mg/L
same,reduction in MIC values,[2]; M19,16 ×
same,Minimum Inhibitory Concentration (MIC),"[2]; Mueller-Hinton, NaCl 0 mM",6.4 mg/L
same,Minimum Inhibitory Concentration (MIC),"[2]; Mueller-Hinton, NaCl 10 mM",6.4 mg/L
same,Minimum Inhibitory Concentration (MIC),"[2]; Mueller-Hinton, NaCl 30 mM",6.4 mg/L
same,Minimum Inhibitory Concentration (MIC),"[2]; Mueller-Hinton, NaCl 50 mM",6.4 mg/L
same,Minimum Inhibitory Concentration (MIC),"[2]; Mueller-Hinton, OligoG CF 5/20 0%",3.2 mg/L
same,Minimum Inhibitory Concentration (MIC),"[2]; Mueller-Hinton, OligoG CF 5/20 2%",3.2 mg/L
same,Minimum Inhibitory Concentration (MIC),"[2]; Mueller-Hinton, OligoG CF 5/20 6%",0.8 mg/L
same,Minimum Inhibitory Concentration (MIC),"[2]; Mueller-Hinton, OligoG CF 5/20 10%",0.4 mg/L
same,reduction in MIC values,[2]; Mueller-Hinton,8 ×
same,effect of addition of OligoG CF-5/20 on MIC values,"[2]; both media tested (M19, Mueller-Hinton)",reduction in MIC values
same,reduction in MIC values,Candida albicans; addition of 10% OligoG CF-5/20 compared to without OligoG CF-5/20,4 ×
same,MIC values,"Candida albicans; no medicament added, G-block 0%",2 mg/L
same,MIC values,"Candida albicans; no medicament added, G-block 2%",2 mg/L
same,MIC values,"Candida albicans; no medicament added, G-block 6%",1 mg/L
same,MIC values,"Candida albicans; no medicament added, G-block 10%",0.5 mg/L
same,MIC values,"Candida albicans; with Budesonide 0.01 mM, G-block 0%",4 mg/L
same,MIC values,"Candida albicans; with Budesonide 0.01 mM, G-block 2%",4 mg/L
same,MIC values,"Candida albicans; with Budesonide 0.01 mM, G-block 6%",2 mg/L
same,MIC values,"Candida albicans; with Budesonide 0.01 mM, G-block 10%",1 mg/L
same,MIC values,"Candida albicans; with Formoterol 0.5 mM (2% DMSO), G-block 0%",2 mg/L
same,MIC values,"Candida albicans; with Formoterol 0.5 mM (2% DMSO), G-block 2%",2 mg/L
same,MIC values,"Candida albicans; with Formoterol 0.5 mM (2% DMSO), G-block 6%",1 mg/L
same,MIC values,"Candida albicans; with Formoterol 0.5 mM (2% DMSO), G-block 10%",0.5 mg/L
same,MIC values,"Candida albicans; with Ipratropium bromide 0.01 mM, G-block 0%",4 mg/L
same,MIC values,"Candida albicans; with Ipratropium bromide 0.01 mM, G-block 2%",2 mg/L
same,MIC values,"Candida albicans; with Ipratropium bromide 0.01 mM, G-block 6%",1 mg/L
same,MIC values,"Candida albicans; with Ipratropium bromide 0.01 mM, G-block 10%",0.25 mg/L
same,MIC values,"Candida albicans; with Ipratropium bromide 1 mM, G-block 0%",4 mg/L
same,MIC values,"Candida albicans; with Ipratropium bromide 1 mM, G-block 2%",2 mg/L
same,MIC values,"Candida albicans; with Ipratropium bromide 1 mM, G-block 6%",0.5 mg/L
same,MIC values,"Candida albicans; with Ipratropium bromide 1 mM, G-block 10%",0.25 mg/L
same,MIC values,"Candida albicans; with Salbutamol 0.01 mM, G-block 0%",4 mg/L
same,MIC values,"Candida albicans; with Salbutamol 0.01 mM, G-block 2%",2 mg/L
same,MIC values,"Candida albicans; with Salbutamol 0.01 mM, G-block 6%",1 mg/L
same,MIC values,"Candida albicans; with Salbutamol 0.01 mM, G-block 10%",0.25 mg/L
same,MIC values,"Candida albicans; with Salbutamol 1 mM, G-block 0%",2 mg/L
same,MIC values,"Candida albicans; with Salbutamol 1 mM, G-block 2%",2 mg/L
same,MIC values,"Candida albicans; with Salbutamol 1 mM, G-block 6%",1 mg/L
same,MIC values,"Candida albicans; with Salbutamol 1 mM, G-block 10%",0.25 mg/L
same,Minimum Inhibitory Concentration (MIC),[1]; 0% OligoG,8 mg/L
same,Minimum Inhibitory Concentration (MIC),[1]; 2% OligoG,4 mg/L
same,Minimum Inhibitory Concentration (MIC),[1]; 6% OligoG,2 mg/L
same,Minimum Inhibitory Concentration (MIC),[1]; 10% OligoG,0.5 mg/L
"CN(C/C=C/C#CC(C)(C)C)Cc1cccc2ccccc12 [Terbinafine, terbinafine]",MIC,"[1]; A. niger CCUG 18919, 0% OligoG",0.5 mg/L
same,MIC,"[1]; A. niger CCUG 18919, 2% OligoG",0.25 mg/L
same,MIC,"[1]; A. niger CCUG 18919, 6% OligoG",0.0625 mg/L
same,MIC,[1]; [3],0.125 mg/L
